Read-outs that look alike come from different tables or passages of the source.

Experiment [1] has as its system mTORC2 activity: phosphorylated AKT Ser473 (pAKT S473) in PC3 cells. Briefly: mTOR target engagement assay, immunofluorescent cell-based, mTORC2 readout. As to conditions: Homo sapiens, PC-3, 1.5 h, 90 min treatment. Here is the method:
The target engagement of mTOR kinase inhibitors was evaluated using an immunofluorescent cell-based assay. In this assay, inhibition of mTORC1 activity was measured by the reduction in the level of phosphorylated 4E-BP1Thr37/46 (p4E-BP1 Thr37/46), and inhibition of mTORC2 activity was measured by the reduction of phosphorylated AKTSer473 (pAKT S473).
PC3 cells (prostate tumor cell-line that contains a mutation in the tumor suppressor PTEN, that promotes the phosphorylation and activation of AKT and 4E-BP1) were used in the immunofluorescence assay. PC3 cells were seeded on 384 well plates (black clear bottom, Matrix #4332) overnight. PC3 cells were then treated with 40 μl of the serially diluted test compounds (in 5% fetal bovine serum, F12 medium containing 0.25% DMSO) for ninety minutes at 37° C. The test compound solution was removed, and the plates were washed gently two times with 25 μl phosphate buffered saline (PBS). The cells were fixed by adding 25 μl of Prefer reagent (from Anatech LTD, Cat#414, a glyoxal fixative for fixing proteins within a cell) for sixty minutes followed by three washes with PBS. 5% Goat serum in PBS/0.3% Triton was used to block non-specific binding (60 minutes).
The primary antibodies targeting pAKT S473 and p4E-BP1 Thr37/46 were diluted into PBS/0.3% Triton and incubated with the cells overnight at 4° C. The antibodies targeting pAKTS473 (Cat#4085, Cell signaling) and p4E-BP1 Thr37/46 (Cat#2855, Cell signaling) were used at a 1:100 dilution. Plates were washed three times with PBS/0.1% Tween 20 before adding the secondary antibody at a 1:200 dilution. (goat anti-rabbit containing a fluorescent label, Alexa Fluor 488, Cat#A11008, Invitrogen) in PBS/0.3% Triton for 60 minutes.
Finally, the plates were washed three times with PBS/0.1% Tween 20 and the fluorescent intensity was read using an Analyst HT from Molecular Devices. The fluorescent intensity values from the serially diluted compound treatment group were analyzed using the Xlfit 4 program ([…]) (Formula 205: Y=Bottom+(Top-Bottom)/(1+(IC50/X)^Hillslope) to generate the IC50 value. Where Top is the maximum signal without Compound (+DMSO only) and Bottom represents maximum inhibition. Y is the fluorescence at some compound concentration. The control used to determine the fluorescent intensities for 100% pAKT S473 or 100% phosphorylated p4E-BP1 Thr37/46 were measured from untreated wells that contained only DMSO, instead of test compound.

The target of another experiment is human mTOR enzyme (Homo sapiens, UniProt P42345). Briefly: HTRF mTOR enzyme (kinase) assay. Format: biochemical. Conditions: 5 μM ATP, 0.2 μM GST-S6K, read-out: hMTOR IC50. On the procedure:
Methods: An HTRF mTOR enzyme assay was developed to assess the compounds' inhibitory activity. The mTOR assay buffer contained 10 mM Hepes (pH 7.4), 50 mM NaCl, […] BSA, 50 mM […], 10 mM MnCl2 and 0.5 mM DTT. […] 20 ng of human mTOR enzyme (<5% pure was preincubated with the compound for 10 minutes followed by the addition of 5 μM ATP and 0.2 μM GST-S6K (Zhang et al., Protein Expression and Purification 46, pp 414-420 (2006)). The reaction was incubated for one hour at 30° C. Anti phospho p70-S6K(Thr389) (˜1.7 ng/well, anti-phospho-p70S6K-cryptate (Pho-p70S6-Kin-K cat#64CUSKAY, from Cisbio)) and anti GST-XL665 (1:1 Ratio with the substrate GST-S6K, anti GST-XL665, cat#61GSTXLB) Cisbio) were added after the reaction was stopped. The plates were read (PHERAstar, BMG) at least 2 hours after adding the anti phospho p70-S6K and the anti GST-XL665.
IC50 DETERMINATIONS: Dose-response curves were plotted from the inhibition data generated, each in duplicate, from 8 point serial dilutions of inhibitory compounds. Concentration of compound was plotted against the HTRF em665/em590 ratio signal. To generate IC50 values, the dose-response curves were fitted to a standard sigmoidal curve and IC50 values were derived by nonlinear regression analysis.
In general terms: Time-resolved FRET reads energy transfer from a long-lived donor to a nearby acceptor.

Chain of human mTOR enzyme (P42345 1360-2549 limits assumed): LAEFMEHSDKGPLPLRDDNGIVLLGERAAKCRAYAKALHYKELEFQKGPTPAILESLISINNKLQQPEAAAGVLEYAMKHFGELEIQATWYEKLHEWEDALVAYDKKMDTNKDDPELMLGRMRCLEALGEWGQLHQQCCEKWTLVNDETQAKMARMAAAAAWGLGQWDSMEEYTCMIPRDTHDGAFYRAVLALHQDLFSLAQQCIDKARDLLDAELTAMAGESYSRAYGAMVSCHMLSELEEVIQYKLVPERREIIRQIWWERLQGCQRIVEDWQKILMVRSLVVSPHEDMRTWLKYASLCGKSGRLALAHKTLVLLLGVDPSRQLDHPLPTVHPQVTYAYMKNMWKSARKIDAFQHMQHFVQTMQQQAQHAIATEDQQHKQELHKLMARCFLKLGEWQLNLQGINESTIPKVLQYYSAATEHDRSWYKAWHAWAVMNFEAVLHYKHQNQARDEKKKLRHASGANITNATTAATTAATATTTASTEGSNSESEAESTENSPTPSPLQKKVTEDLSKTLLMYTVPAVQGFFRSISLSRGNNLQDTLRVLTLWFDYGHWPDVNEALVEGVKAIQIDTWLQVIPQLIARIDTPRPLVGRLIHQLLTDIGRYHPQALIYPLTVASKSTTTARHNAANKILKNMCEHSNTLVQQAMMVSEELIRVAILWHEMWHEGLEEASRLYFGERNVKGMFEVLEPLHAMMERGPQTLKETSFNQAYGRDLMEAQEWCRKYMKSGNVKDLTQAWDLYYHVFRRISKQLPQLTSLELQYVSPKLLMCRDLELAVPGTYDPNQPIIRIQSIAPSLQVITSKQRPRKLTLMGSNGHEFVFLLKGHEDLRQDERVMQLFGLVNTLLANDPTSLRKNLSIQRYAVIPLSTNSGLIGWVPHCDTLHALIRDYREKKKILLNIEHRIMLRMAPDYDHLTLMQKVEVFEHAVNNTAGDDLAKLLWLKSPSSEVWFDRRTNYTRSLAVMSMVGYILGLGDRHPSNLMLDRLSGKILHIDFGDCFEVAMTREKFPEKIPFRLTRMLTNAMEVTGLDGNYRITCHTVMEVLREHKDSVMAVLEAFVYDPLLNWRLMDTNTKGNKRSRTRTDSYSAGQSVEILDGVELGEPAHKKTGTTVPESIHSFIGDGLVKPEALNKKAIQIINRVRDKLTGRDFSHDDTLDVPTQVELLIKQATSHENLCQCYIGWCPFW

For orientation: IC50 means the midpoint of a concentration-inhibition curve. In the case of `COCC1(O)CCC(c2nc3c(-c4cnc5ccc(F)cc5c4)cnn3c(N)c2Br)CC1` (stereo not drawn) [Compound 165, 4-(7-amino-6-bromo-3-(6-fluoroquinolin-3-yl)pyrazolo[1,5-a]pyrimidin-5-yl)-1-(methoxymethyl)cyclohexanol], the IC50 in experiment [1] (rated class) is 1000 to 2000 nM; on human mTOR enzyme (rated class), 1 to 100 nM.

On to `CC(=O)c1c(N)n2ncc(-c3cnn(-c4cnn(C)c4)c3)c2nc1[C@H]1CC[C@@](O)(CO)CC1` [Compound 148, 1-(7-amino-5-((1R,4R)-4-hydroxy-4-(hydroxymethyl)cyclohexyl)-3-(1′-methyl-1′H-1,4′-bipyrazol-4-yl)pyrazolo[1,5-a]pyrimidin-6-yl)ethanone], for which the 50% inhibitory concentration (IC50) in experiment [1] (rated class) fell in the range of 2000 to 5000 nM; on human mTOR enzyme (rated class), 1 to 100 nM.

In the case of `COc1ccc(-c2ccc(-c3cnn4c(N)c(C(C)=O)c(C5CCC(O)(CO)CC5)nc34)cn2)cc1C(=O)O` (stereo not drawn) [Compound 155, 5-(5-(6-acetyl-7-amino-5-(4-hydroxy-4-(hydroxymethyl)-cyclohexyl)-pyrazolo-[1,5-a]pyrimidin-3-yl)pyridin-2-yl)-2-methoxybenzoic acid], the IC50 was 5000 to 15000 nM in experiment [1] (rated class) and 1 to 100 nM on human mTOR enzyme (rated class).

For the molecule `COCC1(C(=O)O)CCC(c2nc3c(-c4ccc(-c5ccccc5)nc4)cnn3c(N)c2Br)CC1` (stereo not drawn) [Compound 5, 4-(7-amino-6-bromo-3-(6-phenylpyridin-3-yl)pyrazolo[1,5-a]pyrimidin-5-yl)-1-(methoxymethyl)-cyclohexane-carboxylic acid], the IC50 lay in the range of 100 to 1000 nM in experiment [1] (rated class) and 1 to 100 nM on human mTOR enzyme (rated class).

Consider `COCCO[C@]1(C(=O)O)CC[C@H](c2nc3c(-c4ccc(-c5ccccc5)nc4)cnn3c(N)c2C(C)=O)CC1` [Compound 56, (1S,4S)-4-(6-acetyl-7-amino-3-(6-phenylpyridin-3-yl)pyrazolo[1,5-a]pyrimidin-5-yl)-1-(2-methoxyethoxy) cyclohexanecarboxylic acid], for which the IC50 is 5000 to 15000 nM in experiment [1] (rated class) and 1 to 100 nM at human mTOR enzyme (rated class).

For the molecule `COC[C@]1(C(=O)O)CC[C@H](c2nc3c(-c4cnc5ccc(F)cc5c4)cnn3c(N)c2C(C)=O)CC1` [Compound 22, (1R,4R)-4-(6-acetyl-7-amino-3-(6-fluoroquinolin-3-yl)pyrazolo[1,5-a]pyrimidin-5-yl)-1-(methoxymethyl)-cyclohexane-carboxylic acid], the IC50 lay within 100 to 1000 nM in experiment [1] (rated class) and 1 to 100 nM on human mTOR enzyme (rated class).

For the molecule `CO[C@]1(C(=O)O)CC[C@@H](c2nc3c(-c4cnc5ccc(F)cc5c4)cnn3c(N)c2C(C)=O)CC1` [Compound 39, (1R,4R)-4-(6-acetyl-7-amino-3-(6-fluoroquinolin-3-yl)pyrazolo[1,5-a]pyrimidin-5-yl)-1-methoxycyclohexane-carboxylic acid], the IC50 in experiment [1] (rated class) fell in the range of 100 to 1000 nM; on human mTOR enzyme (rated class), 1 to 100 nM.

In the case of `CC(=O)c1c(N)n2ncc(-c3ccc(-c4ccccc4)nc3)c2nc1[C@H]1CC[C@@](OCCN2CCOCC2)(C(=O)O)CC1` [Compound 58, (1R,4R)-4-(6-acetyl-7-amino-3-(6-phenylpyridin-3-yl)pyrazolo[1,5-a]pyrimidin-5-yl)-1-(2-morpholinoethoxy) cyclohexanecarboxylic acid], the IC50 in experiment [1] (rated class) was 100 to 1000 nM; at human mTOR enzyme (rated class), 1 to 100 nM.

For the molecule `COC[C@]1(C(=O)O)CC[C@@H](c2nc3c(-c4cnc5ccc(F)cc5c4)cnn3c(N)c2C(C)=O)CC1` [Compound 23, (1S,4S)-4-(6-acetyl-7-amino-3-(6-fluoroquinolin-3-yl)pyrazolo[1,5-a]pyrimidin-5-yl)-1-(methoxymethyl)-cyclohexane-carboxylic acid], the results for the IC50 (in experiment [1] (rated class); at human mTOR enzyme (rated class)) were 2000 to 5000 nM and 1 to 100 nM, respectively.

For the molecule `COCCO[C@]1(C(=O)O)CC[C@@H](c2nc3c(-c4ccc(-c5ccccc5)nc4)cnn3c(N)c2SC)CC1` [Compound 63, (1R,4R)-4-(7-amino-6-(methylthio)-3-(6-phenylpyridin-3-yl)pyrazolo[1,5-a]pyrimidin-5-yl)-1-(2-methoxyethoxy)cyclohexanecarboxylic acid], the IC50 in experiment [1] (rated class) lay in the range of 1000 to 2000 nM; on human mTOR enzyme (rated class) it was 1 to 100 nM.

Consider `Nc1c(Br)c([C@H]2CC[C@](O)(CCO)CC2)nc2c(-c3ccc(-c4ccccc4)nc3)cnn12` [Compound 137, (1S,4S)-4-(7-amino-6-bromo-3-(6-phenylpyridin-3-yl)pyrazolo[1,5-a]pyrimidin-5-yl)-1-(2-hydroxyethyl)cyclohexanol], for which the IC50 in experiment [1] (rated class) lay within 100 to 1000 nM; on human mTOR enzyme (rated class) it was 1 to 100 nM.

`COC[C@]1(O)CC[C@@H](c2nc3c(-c4ccc(-c5ccccc5)nc4)cnn3c(N)c2Br)CC1` [Compound 164, (1S,4S)-4-(7-amino-6-bromo-3-(6-phenylpyridin-3-yl)pyrazolo[1,5-a]pyrimidin-5-yl)-1-(methoxymethyl)cyclohexanol]: the values for the IC50 (in experiment [1] (rated class); at human mTOR enzyme (rated class)) were 1000 to 2000 nM and 1 to 100 nM, respectively.

As to `COCCO[C@]1(C(=O)O)CC[C@@H](c2nc3c(-c4ccc(-c5nccs5)nc4)cnn3c(N)c2C(C)=O)CC1` [Compound 60, (1R,4R)-4-(6-acetyl-7-amino-3-(6-(thiazol-2-yl)pyridin-3-yl)pyrazolo[1,5-a]pyrimidin-5-yl)-1-(2-methoxyethoxy) cyclohexanecarboxylic acid], the values for the IC50 (in experiment [1] (rated class); at human mTOR enzyme (rated class)) were 100 to 1000 nM and 1 to 100 nM, respectively.

For `COCCOCC1(C(=O)O)CCC(c2nc3c(-c4ccc(-c5ccccc5)nc4)cnn3c(N)c2C(C)=O)CC1` (stereo not drawn) [Compound 24, 4-(6-acetyl-7-amino-3-(6-phenylpyridin-3-yl)pyrazolo[1,5-a]pyrimidin-5-yl)-1-((2-methoxyethoxy)methyl)cyclohexane-carboxylic acid], the IC50 fell in the range of 100 to 1000 nM in experiment [1] (rated class) and 1 to 100 nM on human mTOR enzyme (rated class).

For `Nc1c(Br)c([C@H]2CC[C@](F)(C(=O)O)CC2)nc2c(-c3ccc(-c4ccccc4)nc3)cnn12` [Compound 3, (1S,4S)-4-(7-amino-6-bromo-3-(6-phenylpyridin-3-yl)pyrazolo[1,5-a]pyrimidin-5-yl)-1-fluorocyclohexane-carboxylic acid], the IC50 was 1000 to 2000 nM in experiment [1] (rated class) and 1 to 100 nM at human mTOR enzyme (rated class).

`CC(=O)c1c(N)n2ncc(-c3ccc(-c4ccccc4)nc3)c2nc1[C@H]1CC[C@](O)(CCO)CC1` [Compound 159, 1-(7-amino-5-((1S,4S)-4-hydroxy-4-(2-hydroxyethyl)-cyclohexyl)-3-(6-phenylpyridin-3-yl)pyrazolo[1,5-a]pyrimidin-6-yl)ethanone]: the IC50 (in experiment [1] (rated class); at human mTOR enzyme (rated class)) was 1 to 100 nM in each case.

Regarding `Nc1c(Br)c(C2CCC(O)(CO)CC2)nc2c(-c3ccc(-c4ccccc4)nc3)cnn12` (stereo not drawn) [Compound 134, 4-(7-amino-6-bromo-3-(6-phenylpyridin-3-yl)pyrazolo[1,5-a]pyrimidin-5-yl)-1-(hydroxymethyl)cyclohexanol], the IC50 came to 209 nM in experiment [1] (numeric value) and 7.37 nM on human mTOR enzyme (numeric value).

Consider `COC(=O)c1cc(-c2ccc(-c3cnn4c(N)c(C(C)=O)c([C@H]5CC[C@@](O)(CO)CC5)nc34)cn2)ccc1OC` [Compound 153, methyl 5-(5-(6-acetyl-7-amino-5-((1R,4R)-4-hydroxy-4-(hydroxymethyl)-cyclohexyl)-pyrazolo-[1,5-a]pyrimidin-3-yl)pyridin-2-yl)-2-methoxybenzoate], for which the IC50 lay in the range of 5000 to 15000 nM in experiment [1] (rated class) and 1 to 100 nM at human mTOR enzyme (rated class).

The values above are taken from patent US8883801B2, “Substituted pyrazolo[1,5-a]pyrimidines as mTOR inhibitors” (Merck Sharp & Dohme Corp., priority 2010, dated 2014).
